This is an account of results in patent WO2018160794A1, “Epha2-targeted docetaxel -generating liposomes in combination with an agent that impedes regulatory t cell activity for treating cancer” (dated 2018).

The subject of assay [1] is EMT-6. The experiment in a line: In vivo antitumor efficacy in EMT-6 model versus free docetaxel (Example 3). Set-up: species or system mouse. Conditions: EMT-6, Example 3.
Another assay relates to T cells in EMT-6 tumors. The experiment in a line: FACS of immune cell infiltrate in EMT-6 tumors versus dose-dense and standard docetaxel (Example 6). It is filed as in vivo, mouse. The following applies: EMT-6, Example 6.
Assay [2] has as its system EMT-6. The experiment in a line: In vivo tumor growth inhibition in EMT-6 model versus dose-dense and standard docetaxel (Example 6). Set-up: species or system mouse. Conditions: EMT-6, Example 6; docetaxel 3.33 mg/kg three times a week (DTX-DD); Figure 7A.
The next assay deals with MC38. The experiment in a line: In vivo antitumor efficacy in MC38 colon cancer model (Example 8). Set-up: species or system mouse. The following applies: MC38, C57BL6/J mice; days after treatment initiation; Figure 9B.

Turning to `CC(=O)O[C@@]12CO[C@@H]1C[C@H](O)[C@@]1(C)C(=O)[C@H](O)C3=C(C)[C@@H](OC(=O)[C@H](O)[C@@H](NC(=O)OC(C)(C)C)c4ccccc4)C[C@@](O)([C@@H](OC(=O)c4ccccc4)[C@H]21)C3(C)C` [docetaxel], in the assay on EMT-6 [1], the tumor regression entry was “no tumor regression”. Besides, the growth arrest result in the assay on EMT-6 [1] (monotherapy, PD-1 10 mg/kg twice weekly, docetaxel 10 mg/kg q1w) is on record as “minimal growth arrest”. Moreover, the “effect on intratumoral immune cell populations” value in the assay with T cells in EMT-6 tumors (dose-dense docetaxel (DTX-DD), 3.33 mg/kg three times a week) is given as “Neither the dose-dense (DTX-DD) nor the weekly (DTX-MTD) docetaxel treatment groups were observed to affect these intratumoral immune cell populations”; in the assay with T cells in EMT-6 tumors (weekly docetaxel (DTX-MTD), 10 mg/kg once a week), “Neither the dose-dense (DTX-DD) nor the weekly (DTX-MTD) docetaxel treatment groups were observed to affect these intratumoral immune cell populations”. In the assay on EMT-6 [2], the “tumor growth inhibition (in words)” value is on record as “improved growth inhibition relative to DTX-MTD, but it did not recapitulate the inhibition observed in 46scFv-ILs-DTXp3 treatment”. In the assay with MC38, this compound registered a median survival of 16 days.
